Test results published in US12448358B2, “Inhibitors of protein arginine deiminase 1 and methods of preparation and use thereof” (University of Massachusetts, priority 2019, dated 2025).

What was measured:
[1] = biological target: T1, PAD1 (Homo sapiens, UniProt Q9ULC6); assay: Streptavidin enrichment and ReDiMe proteomics of proteins labelled by probe in HEK293TPAD1 cells (PAD1); assay type: cell-based; details: 5 μM probe versus control
T1 construct: made in house
T1 sequence (Q9ULC6 1-663): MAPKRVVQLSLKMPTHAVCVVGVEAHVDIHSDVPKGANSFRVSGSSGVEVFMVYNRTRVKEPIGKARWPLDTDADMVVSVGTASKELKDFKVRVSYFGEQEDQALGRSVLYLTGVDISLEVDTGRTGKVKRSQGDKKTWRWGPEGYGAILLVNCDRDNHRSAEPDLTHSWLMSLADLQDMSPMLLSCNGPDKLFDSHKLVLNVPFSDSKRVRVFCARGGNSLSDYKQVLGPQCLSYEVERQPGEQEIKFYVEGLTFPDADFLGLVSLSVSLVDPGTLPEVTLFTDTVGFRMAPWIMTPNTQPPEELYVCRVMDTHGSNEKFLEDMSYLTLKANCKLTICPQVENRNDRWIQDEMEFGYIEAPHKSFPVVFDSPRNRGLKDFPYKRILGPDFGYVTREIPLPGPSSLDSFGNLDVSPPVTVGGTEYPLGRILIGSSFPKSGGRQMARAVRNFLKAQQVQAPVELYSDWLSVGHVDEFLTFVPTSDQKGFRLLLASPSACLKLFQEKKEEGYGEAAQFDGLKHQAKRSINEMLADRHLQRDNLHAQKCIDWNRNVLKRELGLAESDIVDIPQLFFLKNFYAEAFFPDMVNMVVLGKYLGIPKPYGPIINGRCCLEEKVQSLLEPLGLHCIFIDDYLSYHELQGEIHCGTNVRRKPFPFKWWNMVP
Procedure: Enrichment of Proteins Labelled by 21 in HEK293TPAD1 Cells on Streptavidin-agarose. HEK293TPAD1 cells were cultured in 175 cm^2 T-175 flasks in DMEM (supplemented with 10% heat-inactivated fetal bovine serum, 100 units/mL penicillin, 100 μg/mL streptomycin and 0.15 mg/mL hygromycin B). Upon reaching ˜90% confluence, cells were treated with 1 mM CaCl2, 5 μM ionomycin and 5 μM of 21 (or equal volume of DMSO for control) in serum-free DMEM for 3 h. Then the cells were scraped, harvested by centrifugation at 3,000 rpm for 5 min and resuspended in 1×PBS. Cell lysis was performed by probe sonication and soluble proteins in the lysates were quantified by DC Assay (Bio-Rad). Endogenous biotinylated proteins were precleared by incubating the lysates with streptavidin-agarose beads (25 μL for 1 mg of total protein in the lysate) at room temperature for 1 h with constant mixing on an end-over-end shaker. The mixture was centrifuged (1200 g, 3 minute) to separate the beads and the supernatant (pre-cleared lysate). Pre-cleared lysates (2 mg/mL, 500 μL final) were clicked with Biotin-N3 (100 μM), TCEP (1.5 mM), TBTA (0.3 mM) and freshly prepared CuSO4 (4 mM), and the tubes were gently tumbled at room temperature for 2 h. The precipitated proteins were collected by centrifugation at 5,000 rpm for 10 min. […]

[2] = biological target: T1, PAD1; assay: Target engagement assay: labelling of PAD1 in HEK293TPAD1 cells with 21 in the presence of inhibitor; assay type: cell-based; details: 5 μM of 21, 3 h, read-out: EC50 of inhibition of labelling of PAD1 by 21
Procedure: Target Engagement Assay—Labelling of PAD1 in HEK293TPAD1 cells with 21 in the presence of 1. This study followed a similar procedure to that described for the dose-dependent labelling of PAD1 in HEK293TPAD1 cells with 21. Briefly, HEK293TPAD1 cells were treated with 1 mM CaCl2, 5 μM ionomycin, 5 μM of 21, and increasing concentrations (0-50 μM) of 1 in serum-free DMEM for 3 h. Cells were scraped, harvested by centrifugation at 3,000 rpm for 5 min and resuspended in 1×PBS. Lysis was carried out by sonicating the cells with a probe sonicator and lysates were clicked with TAMRA-N3 in the presence of TCEP, TBTA and CuSO4 as described above. Protein bands were separated by SDS-PAGE and were visualized by recording in-gel fluorescence. […] All the experiments were performed at least in duplicate.

Structure (SMILES) | Enrichment ratio (heavy/light) of PAD1 [1] | EC50 [2] [µM]
C#Cc1c(I)cc(C(=O)N[C@@H](CCCNC(=N)CF)c2nc3ccccc3[nH]2)c(O)c1I [Compound 21] | ~20 | –
N=C(CF)NCCC[C@H](NC(=O)c1cc(I)cc(I)c1O)c1nc2ccccc2[nH]1 [Compound 1] | – | 12.7
